{"source": "patent US20080139545A1", "about": "“FORMULATION TO TREAT EAR INFECTION” (priority 2006, published 2008)", "key": {"[1]": {"experiment": "conventional treatments of the same patients before NAC (case histories)", "format": "in vivo, human", "conditions": "for response of effusion, tube plugging and otorrhea to conventional treatment: patient one (Example 4), 2002-2005, topical or oral"}, "[2]": {"experiment": "conventional treatments of the same patients before NAC (case histories)", "format": "in vivo, human", "excerpt": "They developed vertigo and bilateral otalgia in 1997, and presented to our practice. Given their prior history, they underwent an extensive workup from the outset. […] They underwent right-sided T tube placement for chronic Eustachian tube dysfunction in October 1997, with marked improvement of their pressure and fullness. However, they developed intermittent otorrhea, for which they received topical Tobradex. In November, the tube plugged completely, and they underwent tube replacement. Findings were notable for thick mucus filling the middle ear space. […] They underwent a right sided mastoidectomy with tube exchange in December 1997, with intraoperative findings notable for an inflamed mastoid cavity with several areas of cholesterol granuloma, as well as complete aditus blockade.\nThey continued to have thick, “taupe”-colored otorrhea after surgery. Considering their failure to respond to therapy, the differential was widened. Their evaluations for immunodeficiency and autoimmune pathology were negative. They underwent multiple TT placements and exchanges, as well as a negative culture and a wide laser tympanotomy in June 1998. The tympanotomy afforded them a brief hiatus from drainage from July through August. […] They also required office debridements every week or alternate week until they underwent a revision tympanomastoidectomy in October 1998. Intraoperative findings were notable for a clear mastoid, but a middle ear full of thick mucopurulence and edematous mucosa. The KTP laser was used to widen the tympanotomy and to ablate the middle ear mucosa to the Eustachian tube. Intraoperative cultures returned negative. Their course improved considerably, with only mild intermittent infections through July 1999. However, they were then diagnosed with breast cancer, which was treated with a modified radical mastectomy and adjuvant chemoradiation.\nAs they were completing their chemotherapy, they redeveloped the same otorrhea, which was treated with continuous, suppressive Floxin drops as well as frequent office debridements. They developed a mastoid abscess in March 2000, for which they underwent a repeat revision mastoidectomy. Preoperative CT imaging raised the concern for osteomyelitis. Intraoperative findings were notable for purulence in the mastoid and subcutaneous tissues, which were debrided widely. Intraoperative cultures returned penicillin-resistant, but otherwise pan-sensitive Staphylococcus aureus. Their otorrhea resumed in April after a brief hiatus. […] They continued to require office debridements on alternate weeks.\nThey had brief episodes of otorrhea in November 2001, and February and May 2002, which were treated easily with ototopicals.\nTheir otorrhea restarted in February 2003. They were begun on alternating courses of topical ciprofloxacin and Tobradex, oral azithromycin and metronidazole, as well as office debridements every week or alternating week. […] An infectious disease consultation was obtained, and they were started on high dose Septra per recommendations. […] A followup culture in October was negative.\nGiven their continued otorrhea, they underwent a revision modified radical tympanomastoidectomy in November 2004, with intraoperative findings notable for a large cholesterol granuloma extending from the mastoid tip to the retrosigmoid region towards the occiput. They had frank purulence in the epi-, pro-, and hypotympanum. The middle ear was packed with Zyvox-soaked Gelfoam. […] After a brief respite, their otorrhea restarted the following month. […] Multiple cultures returned negative except for occasional colonies of Candida albicans.\npatient four is a diabetic with a history of frequent ear infections as a child. They developed ear plugging in May 2004, and was treated with oral antibiotics for otitis media. […] However, they developed chronic otorrhea after tube placement, which persisted despite multiple courses of oral and topical antibiotics. The TT was removed in September, after which they developed a chronic serous effusion. […]"}, "[3]": {"experiment": "off-label treatment of patients with Ciprodex augmented with 2% NAC (case reports)", "format": "in vivo, human", "conditions": "patient two (Example 1), oral, for presumed fungal superinfection", "excerpt": "These patients responded uniformly to the compositions of the present invention. All treated ears ceased to drain within 1-2 weeks of adequate treatment. No ototoxicity was documented by either patient report or audiometry.\nGiven their multiple treatment failures, they were started at this point on Ciprodex augmented with 2% NAC. Verbal informed consent was obtained prior to starting treatment, and they were continued on oral Zyvox. […] They were given a fresh mixture of NAC with Ciprodex, and their otorrhea and middle ear fluid resolved one week later. […] They have been refrigerating the medication between uses, and hand warming the solution before application.\nIn November 2005, SG underwent a two week course of topical Ciprodex augmented with 2% NAC. Verbal informed consent was obtained prior to starting treatment.\nAt this point, BT was started on a two week course of topical Ciprodex augmented with 2% NAC. Verbal informed consent was obtained prior to starting treatment.\nIn November 2005, DL was started on a two week course of topical Ciprodex augmented with 2% NAC. Verbal informed consent was obtained prior to starting treatment. […] The same solution was insufflated into the ear after an aggressive debridement, and they were started on another two week course. The patient traveled abroad for one month, and returned in January 2006. […]"}, "[4]": {"conditions": "high first pass metabolism through the liver; cited from earlier work"}, "[5]": {"conditions": "NAC at a concentration of 0.1%; cited from earlier work"}, "Pseudomonas cultures": {"tested_on": "Pseudomonas cultures", "conditions": "cited from earlier work"}, "[6]": {"tested_on": "Staphylococcus epidermidis", "conditions": "concentrations of 0.003% to 0.8%; cited from earlier work"}, "Streptococcus pneumoniae": {"tested_on": "Streptococcus pneumoniae", "conditions": "concentrations of 0.003% to 0.8%; cited from earlier work"}, "Bacillus species": {"tested_on": "Bacillus species", "conditions": "concentrations of 0.003% to 0.8%; cited from earlier work"}, "Moraxella catarrhalis": {"tested_on": "Moraxella catarrhalis", "conditions": "concentrations of 0.003% to 0.8%; cited from earlier work"}, "Klebsiella pneumoniae": {"tested_on": "Klebsiella pneumoniae", "conditions": "concentrations of 0.003% to 0.8%; cited from earlier work"}, "Escherichia coli": {"tested_on": "Escherichia coli", "conditions": "concentrations of 0.003% to 0.8%; cited from earlier work"}, "Haemophilus influenzae": {"tested_on": "Haemophilus influenzae", "conditions": "concentrations of 0.003% to 0.8%; cited from earlier work"}, "polymicrobial cultures": {"tested_on": "polymicrobial cultures", "conditions": "concentrations of 0.003% to 0.8%; cited from earlier work"}, "[7]": {"conditions": "topical NAC, rat model of otitis media; cited from earlier work"}, "[8]": {"conditions": "topical NAC, rabbit model of otitis media; cited from earlier work"}, "[9]": {"conditions": "applied topically to children at a concentration of 2%; cited from earlier work"}, "[10]": {"conditions": "administered via transtympanic iontopheresis; cited from earlier work"}, "[11]": {"tested_on": "cochlear outer hair cell (OHC)", "conditions": "co-administration with NAC at 0.017%; cited from earlier work"}, "[12]": {"tested_on": "cochlear outer hair cell (OHC)", "conditions": "multiple studies; cited from earlier work"}, "[13]": {"conditions": "patient two (Example 1), 1997-2005, topical or oral as stated"}}, "note": "Entries after “also recorded” stand apart in the source; their conditions may differ. Like-named read-outs stand apart in the source and are kept apart here."}
{"smiles": "CC1COc2c(N3CCN(C)CC3)c(F)cc3c(=O)c(C(=O)O)cn1c23", "note": "(racemic) [Floxin, (±)-9-fluoro-2,3-dihydro-3-methyl-10-(4-methyl-1-piperazinyl)-7-oxo-7H-pyrido[1,3,3-de]-1,4-benzoxazine-6-carboxylic acid]", "values": [{"measurement": "response of effusion, tube plugging and otorrhea to conventional treatment", "setting": "[1]", "result": "continued essentially unchanged"}]}
{"smiles": "CC[C@H]1OC(=O)[C@H](C)[C@@H](O[C@H]2C[C@@](C)(OC)[C@@H](O)[C@H](C)O2)[C@H](C)[C@@H](O[C@@H]2O[C@H](C)C[C@H](N(C)C)[C@H]2O)[C@](C)(OC)C[C@@H](C)C(=O)[C@H](C)[C@@H](O)[C@]1(C)O", "note": "[Biaxin, 6-O-methylerythromycin]", "values": [{"measurement": "response of otorrhea to conventional treatment", "setting": "[2]; [13]", "result": "failed to respond"}]}
{"smiles": "Cc1ncc([N+](=O)[O-])n1CCO", "note": "[Flagyl, 2-Methyl-5-nitro-imidazole-1-ethanol]", "values": [{"measurement": "response of otorrhea to conventional treatment", "setting": "[2]; patient four (Example 2), 2004-2005, topical or oral as stated", "result": "otorrhea persisted"}, {"measurement": "response of otorrhea to conventional treatment", "setting": "[2]; [13]", "result": "symptoms continued essentially unabated"}]}
{"smiles": "CN(C/C=C/C#CC(C)(C)C)Cc1cccc2ccccc12.Cl", "note": "[Lamisil, (E)-N-(6,6-dimethyl-2-hepten-4-ynyl)-N-methyl-1-naphthalenemethanamine hydrochloride]", "values": [{"measurement": "tolerability", "setting": "[3]", "result": "could tolerate only three days of treatment secondary to gastrointestinal side effects"}]}
{"smiles": "CC(=O)N[C@@H](CS)C(=O)O", "note": "[NAC, N-acetylcysteine]", "values": [{"measurement": "oral bioavailability", "setting": "[4]", "result": "5-10%"}, {"measurement": "viscosity reductions", "setting": "[5]", "result": "21-39%"}, {"measurement": "killing of Pseudomonas cultures", "setting": "Pseudomonas cultures; NAC administered alone, concentration of only 0.002%", "result": 95, "unit": "%"}, {"measurement": "decrease of the efficacy of aminoglycoside antibiotics", "setting": "Pseudomonas cultures; combination with aminoglycoside antibiotics", "result": "2-16 fold"}, {"measurement": "interaction with ticarcillin and carbenicillin", "setting": "Pseudomonas cultures; combination with ticarcillin and carbenicillin", "result": "strong synergy"}, {"measurement": "adherence of Staphylococcus epidermidis to polystyrene", "setting": "[6]", "result": "reduces the adherence"}, {"measurement": "adherence of Streptococcus pneumoniae to human oropharyngeal cells", "setting": "Streptococcus pneumoniae", "result": "reduces the adherence"}, {"measurement": "adherence of Bacillus species to stainless steel", "setting": "Bacillus species", "result": "reduces the adherence"}, {"measurement": "adherence of Moraxella catarrhalis to human pharyngeal cells", "setting": "Moraxella catarrhalis", "result": "reduces the adherence"}, {"measurement": "adherence of Klebsiella pneumoniae to polystyrene", "setting": "Klebsiella pneumoniae", "result": "reduces the adherence"}, {"measurement": "adherence of Escherichia coli to polystyrene", "setting": "Escherichia coli", "result": "reduces the adherence"}, {"measurement": "adherence of Haemophilus influenzae to mucus and human oropharyngeal cells", "setting": "Haemophilus influenzae", "result": "reduces the adherence"}, {"measurement": "adherence of polymicrobial cultures to stainless steel and tracheoesophageal puncture prostheses", "setting": "polymicrobial cultures", "result": "reduces the adherence"}, {"measurement": "fibroblast proliferation, collagen synthesis, and inflammatory markers", "setting": "[7]", "result": "Marked reductions"}, {"measurement": "tympanic membrane scarring", "setting": "[7]", "result": "effectively reduced this scarring"}, {"measurement": "fibroblast proliferation, collagen synthesis, and inflammatory markers", "setting": "[8]", "result": "Marked reductions"}, {"measurement": "tympanic membrane scarring", "setting": "[8]", "result": "effectively reduced this scarring"}, {"measurement": "TT reinsertion, recurrence of otitis media, need for physician visits", "setting": "[9]", "result": "decreases"}, {"measurement": "tympanostomy tube (TT) longevity", "setting": "[9]", "result": "increases"}, {"measurement": "clearance of thick middle ear effusions", "setting": "[10]", "result": "may speed the clearance"}, {"measurement": "hydrogen peroxide-mediated damage to OHCs", "setting": "[11]", "result": "completely prevented"}, {"measurement": "protection against oxidative OHC damage from cisplatin or aminoglycosides", "setting": "[12]", "result": "protect against oxidative OHC damage"}]}
{"smiles": "CN[C@@H](C)[C@@H](O)c1ccccc1", "note": "[Sudafed]", "values": [{"measurement": "response of effusion, tube plugging and otorrhea to conventional treatment", "setting": "[1]", "result": "effusion and plugging continued"}]}
{"smiles": "CC[C@H]1OC(=O)[C@H](C)[C@@H](O[C@H]2C[C@@](C)(OC)[C@@H](O)[C@H](C)O2)[C@H](C)[C@@H](O[C@@H]2O[C@H](C)C[C@H](N(C)C)[C@H]2O)[C@](C)(O)C[C@@H](C)CN(C)[C@H](C)[C@@H](O)[C@]1(C)O", "note": "[azithromycin]", "values": [{"measurement": "response of otorrhea to conventional treatment", "setting": "[2]; [13]", "result": "symptoms continued essentially unabated"}, {"measurement": "response of effusion, tube plugging and otorrhea to conventional treatment", "setting": "[1]", "result": "effusion and plugging continued; also recorded: continued essentially unchanged"}]}
{"smiles": "O=C(N[C@H](CO)[C@H](O)c1ccc([N+](=O)[O-])cc1)C(Cl)Cl", "note": "[chloramphenicol]", "values": [{"measurement": "response of otorrhea to conventional treatment", "setting": "[2]; [13]", "result": "failed to respond"}]}
{"smiles": "O=C(O)c1cn(C2CC2)c2cc(N3CCNCC3)c(F)cc2c1=O", "note": "[ciprofloxacin drops, 1-cyclopropyl-6-fluoro-1,4-dihydro-4-oxo-7-(1-piperazinyl)-3-quinolinecarboxylic acid]", "values": [{"measurement": "response of otorrhea to conventional treatment", "setting": "[2]; [13]", "result": "continued to drain through December; also recorded: failed to respond; also recorded: otorrhea resolved"}, {"measurement": "response of otorrhea to conventional treatment", "setting": "[2]; patient two (Example 1), 1997-2005, topical or oral as stated, listed as ciprofloxacin", "result": "symptoms continued essentially unabated"}, {"measurement": "response of effusion, tube plugging and otorrhea to conventional treatment", "setting": "[1]", "result": "effusion and plugging continued; also recorded: tube plugging and otorrhea continued"}, {"measurement": "response of otorrhea/effusion to conventional treatment", "setting": "[1]; patient three (Example 3), 2005, topical or oral as stated", "result": "developed recurrent otorrhea on the right side"}]}
{"smiles": "CN[C@H](CC(C)C)C(=O)N[C@H]1C(=O)N[C@@H](CC(N)=O)C(=O)N[C@H]2C(=O)N[C@H]3C(=O)N[C@H](C(=O)N[C@H](C(=O)O)c4cc(O)cc(O)c4-c4cc3ccc4O)[C@H](O)c3ccc(c(Cl)c3)Oc3cc2cc(c3O[C@@H]2O[C@H](CO)[C@@H](O)[C@H](O)[C@H]2O[C@H]2C[C@](C)(N)[C@H](O)[C@H](C)O2)Oc2ccc(cc2Cl)[C@H]1O", "note": "[vancomycin]", "values": [{"measurement": "response of otorrhea to conventional treatment", "setting": "[2]; [13]", "result": "some improvement"}]}
